{"source": "patent US20260265214A1", "about": "“NOVEL DERIVATIVES OF GLYCEROL” (SYMRISE AG, priority 2023, published 2026)", "origin": "cited, not measured here", "settings": "in 28 days", "data": [{"smiles": "CCCCCC1C(=O)CCC1CC(=O)OC", "note": "(stereo not shown) [methyl dihydrojasmonate, methyl 2-(3′-oxo-2′-pentylcyclopentyl)acetate]", "values": [{"measurement": "readily biodegradable", "value": 85, "unit": "%"}]}]}
